Experimental data as given in PubChem BioAssay AID248 (DTP/NCI, 2004).
Several values for one entry are separate records, joined by “and”; a condition that tells them apart may be missing. Identical values can stand only once. Toxic doses and inconclusive results are not listed. Cut-off read from the data, not from the text of the source: active = T/C of 150% or more; inactive = T/C below 125%.

System: L1210 leukemia ip in BDF1 mice, survival T/C
Assay: NCI In Vivo Anticancer Drug Screen. Data for tumor model L1210 Leukemia (intraperitoneal) in B6D2F1 (BDF1) mice
Conditions: endpoint: mean survival time, higher = longer survival
Summary of the method: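 Mice bearing the transplanted tumor received compound or vehicle. Survival of the treated group was divided by that of the vehicle-treated control group to give the ratio.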

[1] = dose: 100.0 mg/kg/injection, schedule: Q01DX009 (ip), vehicle: Klucel (hydroxypropylcellulose) (HPC)
[2] = dose: 100.0 mg/kg/injection, schedule: Q01DX009 (ip), vehicle: saline with Tween-80
[3] = dose: 200.0 mg/kg/injection, schedule: Q01DX009 (ip), vehicle: saline with Tween-80
[4] = dose: 100.0 mg/kg/injection, schedule: Q04DX003 (ip), vehicle: Klucel (hydroxypropylcellulose) (HPC)
[5] = dose: 200.0 mg/kg/injection, schedule: Q01DX009 (ip), vehicle: Klucel (hydroxypropylcellulose) (HPC)
[6] = dose: 200.0 mg/kg/injection, schedule: Q04DX003 (ip), vehicle: Klucel (hydroxypropylcellulose) (HPC)
[7] = dose: 400.0 mg/kg/injection, schedule: Q01DX009 (ip), vehicle: Klucel (hydroxypropylcellulose) (HPC)
[8] = dose: 400.0 mg/kg/injection, schedule: Q04DX003 (ip), vehicle: Klucel (hydroxypropylcellulose) (HPC)
[9] = dose: 50.0 mg/kg/injection, schedule: Q01DX009 (ip), vehicle: saline with Tween-80

Measured: T/C

CCOC(=O)CCCc1ccc(N/N=N/c2nc[nH]c2C(N)=O)cc1
inactive: dose: 25.0 mg/kg/injection, schedule: Q01DX Z (ip), vehicle: carboxymethylcellulose (CMC) 94 % of control | dose: 50.0 mg/kg/injection, schedule: Q01DX Z (ip), vehicle: carboxymethylcellulose (CMC) 88 % of control | dose: 75.0 mg/kg/injection, schedule: Q01DX Z (ip), vehicle: carboxymethylcellulose (CMC) 88 % of control | dose: 100.0 mg/kg/injection, schedule: Q01DX Z (ip), vehicle: carboxymethylcellulose (CMC) 103 % of control | dose: 200.0 mg/kg/injection, schedule: Q01DX Z (ip), vehicle: carboxymethylcellulose (CMC) 88 % of control

CCC[CH2][Pb]([CH2]CCC)([CH2]CCC)[N](C#N)C#N
inactive: dose: 25.0 mg/kg/injection, schedule: Q04DX002 (sc), vehicle: olive oil, sesame oil, peanut oil 101 % of control | dose: 50.0 mg/kg/injection, schedule: Q04DX002 (sc), vehicle: olive oil, sesame oil, peanut oil 101 % of control | dose: 100.0 mg/kg/injection, schedule: Q04DX002 (sc), vehicle: olive oil, sesame oil, peanut oil 96 % of control and 97 % of control

CCCCCCCc1c(C)[nH]c2ccccc2c1=O
inactive: [1] 86 % of control | dose: 100.0 mg/kg/injection, schedule: Q04DX003 (ip), vehicle: other 98 % of control | dose: 200.0 mg/kg/injection, schedule: Q04DX003 (ip), vehicle: other 94 % of control | dose: 400.0 mg/kg/injection, schedule: Q04DX003 (ip), vehicle: other 91 % of control

O=C(NC(Cc1ccccc1)C(=O)O)c1ccccc1 (configuration not stated)
inactive: [2] 91 % of control | dose: 100.0 mg/kg/injection, schedule: Q04DX003 (ip), vehicle: saline with Tween-80 94 % of control and 92 % of control | [3] 95 % of control | dose: 200.0 mg/kg/injection, schedule: Q04DX003 (ip), vehicle: saline with Tween-80 96 % of control and 95 % of control | dose: 400.0 mg/kg/injection, schedule: Q01DX009 (ip), vehicle: saline with Tween-80 90 % of control | dose: 400.0 mg/kg/injection, schedule: Q04DX003 (ip), vehicle: saline with Tween-80 97 % of control and 90 % of control

COc1ccc(C2NC(=O)c3ccccc3N2)c(OC)c1OC (configuration not stated)
inactive: [1] 105 % of control | [4] 97 % of control | [5] 100 % of control | [6] 101 % of control | [7] 106 % of control | [8] 102 % of control

C/[N+]([O-])=N\Nc1c(Br)cc(Br)cc1Br
inactive: [9] 105 % of control | [2] 102 % of control | [3] 105 % of control

N/C(N=Nc1ccccc1)=N\[N+](=O)[O-]
inactive: [4] 100 % of control | [6] 105 % of control | [8] 86 % of control

CC1CCCCN1Cc1ccccc1COC(=O)c1ccc(Br)cc1 (configuration not stated)
inactive: dose: 100.0 mg/kg/injection, schedule: Q04DX002 (ip), vehicle: Klucel (hydroxypropylcellulose) (HPC) 101 % of control | dose: 200.0 mg/kg/injection, schedule: Q04DX002 (ip), vehicle: Klucel (hydroxypropylcellulose) (HPC) 92 % of control | dose: 400.0 mg/kg/injection, schedule: Q04DX002 (ip), vehicle: Klucel (hydroxypropylcellulose) (HPC) 96 % of control

CC(C)=CCC/C(C)=C/CO
inactive: [9] 92 % of control | dose: 100.0 mg/kg/injection, schedule: Q01DX001 (ip), vehicle: carboxymethylcellulose (CMC) 95 % of control | [2] 98 % of control | dose: 200.0 mg/kg/injection, schedule: Q01DX001 (ip), vehicle: carboxymethylcellulose (CMC) 108 % of control | [3] 98 % of control | dose: 400.0 mg/kg/injection, schedule: Q01DX001 (ip), vehicle: carboxymethylcellulose (CMC) 101 % of control

COc1c2c(cc3c1C1(O)Cc4ccc5c(c4C[N+]1(C)CC3)OCO5)OCO2 (configuration not stated)
inactive: dose: 100.0 mg/kg/injection, schedule: Q01DX001 (ip), vehicle: saline 95 % of control | dose: 200.0 mg/kg/injection, schedule: Q01DX001 (ip), vehicle: saline 91 % of control

NC(=O)c1ccccc1NC(=O)c1ccccc1Cl
inactive: [1] 102 % of control | [5] 100 % of control | [7] 93 % of control

O=C(N/N=C/C1CC2C=CC1C2)c1ccncc1 (configuration not stated)
inactive: dose: 25.0 mg/kg/injection, schedule: Q01DX009 (ip), vehicle: saline with Tween-80 100 % of control | [9] 102 % of control | [2] 95 % of control and 103 % of control
